One data set has as its system LoVo. Kind of data set: Cell based screen for inhibitors of Raf and/or Mek kinase (SRB), LoVo. Also noted: species or system human. The note with it: Homo sapiens, 96 h, LoVo cells, four days incubation, (a)/(b)/(c) = average of two/three/five runs. Here is the method:
Cell Based Screen for Inhibitors of Raf and/or Mek Kinase. Materials
Cell Lines: Human adenocarcinoma cell line LoVo, known to be growth inhibited by low nM concentrations of a reference standard inhibitor of Ras and human adenocarcinoma cell line CaCo-2, known to be growth resistant to the same reference compound.
Cell Media: RPMI 1640 with 10% Fetal Bovine Serum supplemented with L-glutamine and Penicillin/Streptomycin.
Cells are plated at 2000 cells per well for cell line LoVo and 1500 cells for cell line CaCo-2 in 96 well plates. Cells are plated in media (200 μl) and allowed to adhere overnight at 37° C. At 24 hours post plating, compounds are added directly at a volume of 0.5 μl. For the qualitative screen (compounds screened at 25 μM) compound is added directly to cells. For the quantitative screen, compound is first diluted in DMSO to generate concentrations of compound or reference standard of: 1, 5, 10 and 25 μM. It is advisable to make the dilutions in an identical 96 well plate so that compounds can be added using a multichannel micropipettor set at 0.5 μl. The cells are then incubated for four days after which the media is removed using a 12 well manifold by first tipping the plate forward at a 45 degree angle and then inserting the manifold in an upright orientation to prevent the tips of the manifold from disturbing cells at the bottom of the plate. 200 μl of normal saline is then added to each well using an 8 well multichannel pipettor, followed by the careful addition of 50 μl of 50% TCA. The plates are then incubated for 2 hours at 4° C., after which the supernatant is removed using the same technique as above and the plated cells are washed twice with 200 μl water. The plates are then air dried and 50 μl of SRB stock solution is carefully added so that the entire bottom of each well is covered. This again can be done using an 8 well multichannel pipettor. The SRB is incubated with fixed cells for 15 minutes at room temperature after which the SRB is removed with the manifold as described above and the plates washed twice with 350 μl of 1% acetic acid per well each time. The plates are then air dried after which the bound SRB is released from protein by the addition of 200 μl of Tris base. Resolubilizing the SRB is aided by placing the plates on a rotator for 15-30 minutes. The absorbance of each well is determined at 550 or 562 nm using a microtiter plate reader.
Each compound or dilution thereof is performed in triplicate. Outliers are identified by visual inspection of the data. Each plate should have a “0” control (vehicle only).
Quantitative Assay: A standard curve is constructed by plotting the concentration of compound against the average absorbance calculated at that concentration. A curve is plotted and the concentration at which the curve passes through the 50% the absorbance mark seen in the “0” control well is the IC50 calculated for that compound. Multiple entries for a given compound indicate that it is tested multiple times.

Data set [1] has as its target T1, Raf and/or Mek kinase (human c-Raf, GST-MEK1) (Homo sapiens, UniProt P04049+Q02750).
T1 construct: Sf9 insect cell lysate containing full length 6his-tagged recombinant human c-Raf; 6His; host or cells: Sf9 insect cells (c-Raf, used as lysate); E. coli (MEK1-GST, GST-MAPK)
Kind of data set: Raf/Mek kinase cascade assay. As to conditions: c-Raf dependent activation of GST-MEK and GST-MAPK, phospho-MAPK ELISA; (a)/(b)/(c) = average of two/three/four runs. It counts as biochemical. In short, it runs like this: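 Cascade run with c-Raf (0.4 U) activating non-active GST-MEK1 and GST-p42 MAPK in MOPS pH 7.2 buffer with ATP/MgCl2, 60 min at 30 °C. Phospho-MAPK captured on anti-GST plates and read with anti-phospho-MAPK and europium-conjugated secondary antibody. Single-point % inhibition at […]; IC50 over 10 µM–1 nM half-log dilutions.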

Our source for the IC50 and melting point values is US7767671B2, “3-Quinolinecarbonitrile protein kinase inhibitors” (Wyeth, priority 2004, dated 2010).

T1 sequence (P04049 whole entry): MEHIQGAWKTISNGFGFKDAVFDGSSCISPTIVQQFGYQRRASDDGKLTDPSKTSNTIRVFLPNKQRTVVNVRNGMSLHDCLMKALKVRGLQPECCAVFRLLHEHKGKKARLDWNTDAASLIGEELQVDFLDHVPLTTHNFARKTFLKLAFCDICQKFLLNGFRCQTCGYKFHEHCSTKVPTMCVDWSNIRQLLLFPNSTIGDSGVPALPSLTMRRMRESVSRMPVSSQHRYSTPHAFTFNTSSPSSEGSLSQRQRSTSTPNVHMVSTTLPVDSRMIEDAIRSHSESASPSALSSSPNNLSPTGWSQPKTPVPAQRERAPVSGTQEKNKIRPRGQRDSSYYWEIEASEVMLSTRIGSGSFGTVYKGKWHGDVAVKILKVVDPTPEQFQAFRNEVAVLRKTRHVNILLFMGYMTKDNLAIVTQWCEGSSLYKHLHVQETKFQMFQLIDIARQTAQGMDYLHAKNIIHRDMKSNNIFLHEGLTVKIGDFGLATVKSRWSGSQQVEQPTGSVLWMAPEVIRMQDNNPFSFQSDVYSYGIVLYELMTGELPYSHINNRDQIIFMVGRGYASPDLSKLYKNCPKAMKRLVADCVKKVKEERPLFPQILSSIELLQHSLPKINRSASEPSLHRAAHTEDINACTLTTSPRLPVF
T1 sequence (Q02750 whole entry): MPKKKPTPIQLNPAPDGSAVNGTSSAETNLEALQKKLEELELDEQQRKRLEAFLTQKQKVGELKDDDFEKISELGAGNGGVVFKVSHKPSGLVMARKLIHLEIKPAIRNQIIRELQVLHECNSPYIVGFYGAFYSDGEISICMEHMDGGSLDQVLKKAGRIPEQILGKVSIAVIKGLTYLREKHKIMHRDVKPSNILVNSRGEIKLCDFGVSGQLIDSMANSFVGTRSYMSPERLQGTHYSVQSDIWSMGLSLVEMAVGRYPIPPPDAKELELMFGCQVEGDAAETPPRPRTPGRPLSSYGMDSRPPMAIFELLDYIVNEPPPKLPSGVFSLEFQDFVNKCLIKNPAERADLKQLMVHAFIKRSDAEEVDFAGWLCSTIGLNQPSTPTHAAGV

On to `COc1cc2c(Nc3ccc(Oc4ccccc4)cc3)c(C#N)cnc2cc1OCCN1CCC(N2CCCCC2)CC1` [Example 32, 7-(2-[1,4′]Bipiperidinyl-1′-yl-ethoxy)-6-methoxy-4-(4-phenoxy-phenylamino)-quinoline-3-carbonitrile], for which the melting point is 141 °C (dec.). This compound also yielded an IC50 in the data set on LoVo of 900 nM. This compound also returned an IC50 in data set [1] of 20 nM.
